From PMC10866072, “Design, synthesis, molecular modelling and biological evaluation of novel 6-amino-5-cyano-2-thiopyrimidine derivatives as potent anticancer agents against leukemia and apoptotic inducers” (Journal of Enzyme Inhibition and Medicinal Chemistry, 2024)

Legend:
OVCAR-8 = type: cell-based; details: Homo sapiens, one dose 10^-5 M, 48 h
HCT-116 = type: cell-based; details: Homo sapiens, one dose 10^-5 M, 48 h, read-out: % growth
CAKI-1 = type: cell-based; details: Homo sapiens, CAKI-1, 48 h, one dose 10^-5 M, 48 h
DU-145 = type: cell-based; details: Homo sapiens, one dose 10^-5 M, 48 h
SF-539 = type: cell-based; details: Homo sapiens, one dose 10^-5 M, 48 h
SF-268 = type: cell-based; details: Homo sapiens, one dose 10^-5 M, 48 h, read-out: % growth
NCI/ADR-RES = type: cell-based; details: Homo sapiens, one dose 10^-5 M, 48 h
LOX IMVI = type: cell-based; details: Homo sapiens, one dose 10^-5 M, 48 h, read-out: % growth
OVCAR-3 = type: cell-based; details: Homo sapiens, one dose 10^-5 M, 48 h
HT29 = type: cell-based; details: Homo sapiens, HT-29, one dose 10^-5 M, 48 h
[1] = system: full NCI 60 cell lines panel; details: for activity at 10 µM: Homo sapiens, 60 cell, 48 h, read-out: Mean % growth; for activity on all 60 cancer cell lines tested (in words): one dose
M14 = type: cell-based; details: Homo sapiens, one dose 10^-5 M, 48 h
HCC-2998 = type: cell-based; details: Homo sapiens, one dose 10^-5 M, 48 h
SF-295 = type: cell-based; details: Homo sapiens, one dose 10^-5 M, 48 h
MCF7 = type: cell-based; details: Homo sapiens, one dose 10^-5 M, 48 h, read-out: % growth
KM12 = type: cell-based; details: Homo sapiens, one dose 10^-5 M, 48 h
NCI-H226 = type: cell-based; details: Homo sapiens, one dose 10^-5 M, 48 h
BT-549 = type: cell-based; details: Homo sapiens, one dose 10^-5 M, 48 h
HL-60(TB) = type: cell-based; details: Homo sapiens, one dose 10^-5 M, 48 h
PC-3 = type: cell-based; details: Homo sapiens, one dose 10^-5 M, 48 h
HOP-92 = type: cell-based; details: Homo sapiens, one dose 10^-5 M, 48 h
SK-MEL-28 = type: cell-based; details: Homo sapiens, one dose 10^-5 M, 48 h
NCI-H23 = type: cell-based; details: Homo sapiens, one dose 10^-5 M, 48 h, read-out: % growth
MDA-MB-435 = type: cell-based; details: Homo sapiens, one dose 10^-5 M, 48 h, read-out: % growth
NCI-H522 = type: cell-based; details: Homo sapiens, one dose 10^-5 M, 48 h
TK-10 = type: cell-based; details: Homo sapiens, one dose 10^-5 M, 48 h
SK-MEL-5 = type: cell-based; details: Homo sapiens, one dose 10^-5 M, 48 h, read-out: % growth
HS 578T = type: cell-based; details: Homo sapiens; one dose 10^-5 M, 48 h; HS 578T; read-out: % growth
COLO 205 = type: cell-based; details: Homo sapiens, one dose 10^-5 M, 48 h
SW-620 = type: cell-based; details: Homo sapiens, one dose 10^-5 M, 48 h
K-562 = type: cell-based; details: Homo sapiens, K562, one dose 10^-5 M, 48 h
UACC-62 = type: cell-based; details: Homo sapiens, one dose 10^-5 M, 48 h
NCI-H460 = type: cell-based; details: Homo sapiens, one dose 10^-5 M, 48 h, read-out: % growth
MOLT-4 = type: cell-based; details: Homo sapiens, one dose 10^-5 M, 48 h, read-out: % growth
RXF 393 = type: cell-based; details: Homo sapiens, RXF 393, 48 h, one dose 10^-5 M, 48 h, read-out: % growth
SNB-19 = type: cell-based; details: Homo sapiens, one dose 10^-5 M, 48 h, read-out: % growth
MALME-3M = type: cell-based; details: Homo sapiens, one dose 10^-5 M, 48 h
IGROV1 = type: cell-based; details: Homo sapiens, IGROV-1, one dose 10^-5 M, 48 h, read-out: % growth
MDA-MB-468 = type: cell-based; details: Homo sapiens, one dose 10^-5 M, 48 h
SK-MEL-2 = type: cell-based; details: Homo sapiens, one dose 10^-5 M, 48 h
SK-OV-3 = type: cell-based; details: Homo sapiens, one dose 10^-5 M, 48 h
OVCAR-4 = type: cell-based; details: Homo sapiens, one dose 10^-5 M, 48 h
UACC-257 = type: cell-based; details: Homo sapiens, one dose 10^-5 M, 48 h
OVCAR-5 = type: cell-based; details: Homo sapiens, one dose 10^-5 M, 48 h
ACHN = type: cell-based; details: Homo sapiens, one dose 10^-5 M, 48 h
SR = type: cell-based; details: Homo sapiens, one dose 10^-5 M, 48 h
MDA-MB-231/ATCC = type: cell-based; details: Homo sapiens, one dose 10^-5 M, 48 h
786-0 = type: cell-based; details: Homo sapiens, one dose 10^-5 M, 48 h
UO-31 = type: cell-based; details: Homo sapiens, UO-31, 48 h, one dose 10^-5 M, 48 h
SN12C = type: cell-based, human; details: Homo sapiens, one dose 10^-5 M, 48 h
A498 = type: cell-based; details: Homo sapiens, one dose 10^-5 M, 48 h
T-47D = type: cell-based; details: Homo sapiens, T47D, one dose 10^-5 M, 48 h, read-out: % growth
A549/ATCC = type: cell-based; details: Homo sapiens, one dose 10^-5 M, 48 h
RPMI-8226 = type: cell-based; details: Homo sapiens, one dose 10^-5 M, 48 h
EKVX = type: cell-based; details: Homo sapiens, one dose 10^-5 M, 48 h
HCT-15 = type: cell-based; details: Homo sapiens, one dose 10^-5 M, 48 h, read-out: % growth
HOP-62 = type: cell-based; details: Homo sapiens, one dose 10^-5 M, 48 h
CCRF-CEM = type: cell-based; details: Homo sapiens, one dose 10^-5 M, 48 h
U251 = type: cell-based; details: Homo sapiens, U-251, one dose 10^-5 M, 48 h

N=C(NN=Cc1ccccc1)c1c(N)nc(S)nc1-c1ccc(Cl)cc1Cl [Compound 4m, 4-Amino-6–(2,4-dichlorophenyl)-2-mercapto-N'-[phenylmethylene]pyrimidine-5-carboximidohydrazide]
% growth of cells at 10 µM (OVCAR-8): 109% | activity at 10 µM (HCT-116): 103% | % growth at 10 µM (CAKI-1): 96% | % growth at 10 µM (DU-145): 111% | % growth at 10 µM (SF-539): 100% | activity at 10 µM (SF-268): 105% | cell growth percent at 10 µM (NCI/ADR-RES): 105% | activity at 10 µM (LOX IMVI): 100% | % growth at 10 µM (OVCAR-3): 109% | % growth at 10 µM (HT29): 108% | activity at 10 µM [1]: 101% | activity on all 60 cancer cell lines tested (in words) [1]: weak activity | % growth at 10 µM (M14): 96.2% | % growth at 10 µM (HCC-2998): 105% | % cell growth at 10 µM (SF-295): 86.9% | activity at 10 µM (MCF7): 89.1% | % growth at 10 µM (KM12): 103% | % growth at 10 µM (NCI-H226): 92% | % cell growth at 10 µM (BT-549): 88.5% | % growth at 10 µM (HL-60(TB)): 97.1% | percent cell growth at 10 µM (PC-3): 103% | % growth at 10 µM (HOP-92): 69.2% | % cell growth at 10 µM (SK-MEL-28): 104% | activity at 10 µM (NCI-H23): 98.7% | activity at 10 µM (MDA-MB-435): 110% | % growth at 10 µM (NCI-H522): 109% | % cell growth at 10 µM (TK-10): 140% | activity at 10 µM (SK-MEL-5): 103% | activity at 10 µM (HS 578T): 102% | % growth at 10 µM (COLO 205): 115% | % growth at 10 µM (SW-620): 109% | % growth at 10 µM (K-562): 95.8% | % growth at 10 µM (UACC-62): 94.3% | activity at 10 µM (NCI-H460): 108% | activity at 10 µM (MOLT-4): 96.2% | activity at 10 µM (RXF 393): 89.5% | activity at 10 µM (SNB-19): 95.8% | % growth at 10 µM (MALME-3M): 85.7% | activity at 10 µM (IGROV1): 101% | percent cell growth at 10 µM (MDA-MB-468): 91.1% | % growth at 10 µM (SK-MEL-2): 120% | % growth at 10 µM (SK-OV-3): 95.6% | % growth at 10 µM (OVCAR-4): 115% | percent cell growth at 10 µM (UACC-257): 106% | percent cell growth at 10 µM (OVCAR-5): 108% | % growth at 10 µM (ACHN): 108% | percent cell growth at 10 µM (SR): 83.2% | % growth at 10 µM (MDA-MB-231/ATCC): 94.4% | % growth at 10 µM (786-0): 92.5% | % cell growth at 10 µM (UO-31): 90.1% | % growth at 10 µM (SN12C): 95.9% | % growth at 10 µM (A498): 125% | activity at 10 µM (T-47D): 103% | % growth at 10 µM (A549/ATCC): 97.4% | % growth at 10 µM (RPMI-8226): 104% | % cell growth at 10 µM (EKVX): 103% | activity at 10 µM (HCT-15): 101% | % growth at 10 µM (HOP-62): 96.6% | % cell growth at 10 µM (CCRF-CEM): 105% | % growth at 10 µM (U251): 97.3%

N=C(NN=Cc1ccc(Cl)cc1)c1c(N)nc(S)nc1-c1ccc(Cl)cc1Cl [Compound 4n, 4-Amino-N'-[(4-chlorophenyl)methylene]-6–(2,4-dichlorophenyl)-2-mercapto pyrimidine-5-carboximidohydrazide]
% growth of cells at 10 µM (OVCAR-8): 91.2% | activity at 10 µM (HCT-116): 94.6% | % growth at 10 µM (CAKI-1): 98.6% | % growth at 10 µM (DU-145): 109% | % growth at 10 µM (SF-539): 87.3% | activity at 10 µM (SF-268): 100% | cell growth percent at 10 µM (NCI/ADR-RES): 105% | activity at 10 µM (LOX IMVI): 95.4% | % growth at 10 µM (OVCAR-3): 110% | % growth at 10 µM (HT29): 121% | activity at 10 µM [1]: 97.2% | activity on all 60 cancer cell lines tested (in words) [1]: weak activity | % growth at 10 µM (M14): 95.6% | % growth at 10 µM (HCC-2998): 101% | % cell growth at 10 µM (SF-295): 73.4% | activity at 10 µM (MCF7): 83.6% | % growth at 10 µM (KM12): 108% | % growth at 10 µM (NCI-H226): 86.3% | % cell growth at 10 µM (BT-549): 92.6% | % growth at 10 µM (HL-60(TB)): 108% | percent cell growth at 10 µM (PC-3): 102% | % growth at 10 µM (HOP-92): 64.2% | % cell growth at 10 µM (SK-MEL-28): 106% | activity at 10 µM (NCI-H23): 92.9% | activity at 10 µM (MDA-MB-435): 104% | % growth at 10 µM (NCI-H522): 90.6% | % cell growth at 10 µM (TK-10): 143% | activity at 10 µM (SK-MEL-5): 103% | activity at 10 µM (HS 578T): 102% | % growth at 10 µM (COLO 205): 114% | % growth at 10 µM (SW-620): 106% | % growth at 10 µM (K-562): 89.9% | % growth at 10 µM (UACC-62): 90.9% | activity at 10 µM (NCI-H460): 102% | activity at 10 µM (MOLT-4): 92.4% | activity at 10 µM (RXF 393): 84.7% | activity at 10 µM (SNB-19): 90.9% | % growth at 10 µM (MALME-3M): 81.6% | activity at 10 µM (IGROV1): 97% | percent cell growth at 10 µM (MDA-MB-468): 96.1% | % growth at 10 µM (SK-MEL-2): 108% | % growth at 10 µM (SK-OV-3): 92.2% | % growth at 10 µM (OVCAR-4): 107% | percent cell growth at 10 µM (UACC-257): 108% | percent cell growth at 10 µM (OVCAR-5): 105% | % growth at 10 µM (ACHN): 83.7% | percent cell growth at 10 µM (SR): 90.6% | % growth at 10 µM (MDA-MB-231/ATCC): 82.5% | % growth at 10 µM (786-0): 78% | % cell growth at 10 µM (UO-31): 93.2% | % growth at 10 µM (SN12C): 90.1% | % growth at 10 µM (A498): 122% | activity at 10 µM (T-47D): 92.6% | % growth at 10 µM (A549/ATCC): 95.8% | % growth at 10 µM (RPMI-8226): 102% | % cell growth at 10 µM (EKVX): 108% | activity at 10 µM (HCT-15): 101% | % growth at 10 µM (HOP-62): 83.1% | % cell growth at 10 µM (CCRF-CEM): 106% | % growth at 10 µM (U251): 70.5%
